Target: T1, native pig P2X2/3Rs in DRG neurons (Sus scrofa, UniProt F1RI70+I3L7H5)
T1 sequence (I3L7H5 1-397): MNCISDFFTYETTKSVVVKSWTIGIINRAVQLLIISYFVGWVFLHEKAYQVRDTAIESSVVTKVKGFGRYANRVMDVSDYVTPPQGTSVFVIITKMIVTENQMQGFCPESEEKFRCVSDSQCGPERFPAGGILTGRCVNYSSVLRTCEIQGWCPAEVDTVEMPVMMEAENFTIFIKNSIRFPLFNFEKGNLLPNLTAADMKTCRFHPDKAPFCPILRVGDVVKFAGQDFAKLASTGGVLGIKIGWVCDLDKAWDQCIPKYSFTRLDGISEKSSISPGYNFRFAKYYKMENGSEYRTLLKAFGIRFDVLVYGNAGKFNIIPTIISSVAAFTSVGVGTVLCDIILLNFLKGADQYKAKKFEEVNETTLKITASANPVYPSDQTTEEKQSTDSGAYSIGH
T1 sequence (F1RI70 1-417): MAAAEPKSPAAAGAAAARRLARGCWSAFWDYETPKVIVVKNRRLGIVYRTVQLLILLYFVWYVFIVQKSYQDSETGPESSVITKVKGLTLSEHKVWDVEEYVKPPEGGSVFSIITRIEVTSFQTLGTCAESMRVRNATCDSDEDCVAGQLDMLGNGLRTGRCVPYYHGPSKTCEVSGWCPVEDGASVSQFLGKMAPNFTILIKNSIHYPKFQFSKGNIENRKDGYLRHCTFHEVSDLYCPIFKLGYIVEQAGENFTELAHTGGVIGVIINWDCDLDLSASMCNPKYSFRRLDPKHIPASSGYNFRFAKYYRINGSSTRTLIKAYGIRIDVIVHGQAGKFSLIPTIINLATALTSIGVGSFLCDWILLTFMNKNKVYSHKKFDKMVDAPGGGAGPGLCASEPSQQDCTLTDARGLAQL
Assay: Whole-cell patch-clamp of α,β-meATP-induced currents in pig DRG neurons

[1] = 100 µM diclofenac, 10 µM α,β-meATP, n = 11

Description: For this purpose, pigs of the German Landrace breed, with an average age of 15 weeks (14.6 SD2.7) and weight of 47.3 kg (SD11.2), were euthanized using an overdose of pentobarbital 60 mg/kg body weight. Subsequently, the DRG were collected. The DRG of pigs were transferred on ice, and fine excision was performed in ice-cold DMEM F12 medium containing 10% FBS and treated with 1 mg/ml collagenase P, 1 mg/ml trypsin T1426, and 0.1 mg/ml DNAse for digestion. Then, the DRG were cut into small pieces inside the digestion medium for surface enlargement and incubated at 37°C and 5% CO2 for 120 ±30 min. After approximately 60 min in the digestion medium, the DRG were triturated using a glass pipette. After the full incubation time, they were triturated thrice using custom-pulled glass pipettes with decreasing tip diameters (from ∼1.1–1.2 to ∼0.3–0.4 mm). For further purification, the DRG were centrifuged at 500 G and 4°C twice for 4 minutes each, and the pellets were suspended in DMEM F12 with 10% FBS. They were subsequently separated from lighter cell fragments and myelin by centrifugation of a Percoll gradient containing a 60% Percoll and a 25% Percoll gradient for 20 min at 500 G. DRG neurons were plated on coverslips coated with poly-D-lysine (100 μg/ml), laminin (10 μg/ml), and fibronectin (10 μg/ml). Neurons were then cultured in neurobasal A medium supplemented with B27, penicillin, streptomycin, and L-glutamine and used for voltage-clamp recordings after 12–72 h in culture.
Whole-cell voltage-clamp recordings of DRG neurons were performed using glass electrodes with micropipette tip resistances of 1.3–3.5 MΩ, pulled and fire-polished with a Zeitz DMZ-puller. The intracellular solution contained 10 mM NaCl, 140 mM CsF, 10 mM HEPES, 1 mM EGTA, 5 mM glucose, and 5 mM TEA-Cl (adjusted to pH 7.3 using CsOH). The extracellular bathing solution contained 140 mM NaCl, 3 mM KCl, 1 mM MgCl2, 1 mM CaCl2, 10 mM HEPES, and 20 mM glucose (adjusted to pH 7.4 using NaOH). The liquid junction potential was corrected by −7.8 mV. […]

SMILES: O=C(O)Cc1ccccc1Nc1c(Cl)cccc1Cl [Diclofenac, diclofenac]
- mean block ± SD, fourth application vs. mean of third and fifth application [1]: 70.9 ± 37.2%
- mean block ± SD, fourth application vs. preceding third application [1]: 70.2 ± 34.3%
- inhibition at 100 µM (DRG neuron, read-out: inhibition of α,β-meATP-elicited whole-cell currents by 100 µM diclofenac): 70.5%
